Reference: PubChem BioAssay (NCI)
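GI50 is the concentration that inhibits growth by half. At the TGI there is no net growth.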

How the values were obtained:
Experiment in all cases: DTP human tumour cell line panel, 384-well format
[1] = test system: HS 578T breast
[2] = test system: OVCAR-5 ovarian
[3] = test system: MDA-MB-468 breast
[4] = test system: T-47D breast
[5] = test system: MCF7 breast
[6] = test system: NCI-H23 lung
[7] = test system: UACC-257 melanoma
[8] = test system: M14 melanoma
[9] = test system: SN12C renal
[10] = test system: IGROV1 ovarian
[11] = test system: HL-60(TB) leukemia
[12] = test system: UACC-62 melanoma
[13] = test system: SF-295 CNS
[14] = test system: HOP-62 NSCLC
[15] = test system: HOP-92 NSCLC
[16] = test system: NCI/ADR-RES ovarian
[17] = test system: ACHN renal
[18] = test system: A549 NSCLC
[19] = test system: SW-620 colon
[20] = test system: SK-MEL-5 melanoma
[21] = test system: CCRF-CEM leukemia
[22] = test system: HCC-2998 colon
[23] = test system: DU-145 prostate
[24] = test system: HCT-15 colon
[25] = test system: MDA-MB-435 melanoma
[26] = test system: OVCAR-8 ovarian
[27] = test system: SNB-75 CNS
[28] = test system: COLO 205 colon
[29] = test system: NCI-H322M lung
[30] = test system: NCI-H460 NSCLC
[31] = test system: SK-MEL-28 melanoma
[32] = test system: RXF 393 renal
[33] = test system: NCI-H522 lung
[34] = test system: KM12 colon
[35] = test system: 786-0 renal
[36] = test system: SK-MEL-2 melanoma
[37] = test system: TK-10 renal
[38] = test system: A498 renal
[39] = test system: CAKI-1 renal
[40] = test system: SR leukemia
[41] = test system: SNB-19 CNS
[42] = test system: PC-3 prostate
[43] = test system: SF-268 CNS
[44] = test system: NCI-H226 lung
[45] = test system: MALME-3M melanoma
[46] = test system: MOLT-4 leukemia
[47] = test system: EKVX NSCLC
[48] = test system: BT-549 breast
[49] = test system: RPMI-8226 leukemia
[50] = test system: SF-539 CNS
[51] = test system: U251 glioblastoma
[52] = test system: OVCAR-3 ovarian
[53] = test system: OVCAR-4 ovarian
[54] = test system: MDA-MB-231 breast
[55] = test system: HT29 colon
[56] = test system: SK-OV-3 ovarian
[57] = test system: K-562 leukemia
[58] = test system: UO-31 renal
[59] = test system: LOX IMVI melanoma
[60] = test system: HCT-116 colon

SMILES: CNC(=O)c1ccc2cc(C3(O)CCn4cncc43)ccc2c1 (configuration not stated)
- GI50 [1]: > 100 µM
- TGI [1]: > 100 µM
- GI50 [2]: > 100 µM
- TGI [2]: > 100 µM
- GI50 [3]: > 100 µM
- TGI [3]: > 100 µM
- GI50 [4]: > 100 µM
- TGI [4]: > 100 µM
- GI50 [5]: > 100 µM
- TGI [5]: > 100 µM
- GI50 [6]: > 100 µM
- TGI [6]: > 100 µM
- GI50 [7]: > 100 µM
- TGI [7]: > 100 µM
- GI50 [8]: > 100 µM
- TGI [8]: > 100 µM
- GI50 [9]: > 100 µM
- TGI [9]: > 100 µM
- GI50 [10]: > 100 µM
- TGI [10]: > 100 µM
- GI50 [11]: > 100 µM
- TGI [11]: > 100 µM
- GI50 [12]: > 100 µM
- TGI [12]: > 100 µM
- GI50 [13]: > 100 µM
- TGI [13]: > 100 µM
- GI50 [14]: > 100 µM
- TGI [14]: > 100 µM
- GI50 [15]: > 100 µM
- TGI [15]: > 100 µM
- GI50 [16]: > 100 µM
- TGI [16]: > 100 µM
- GI50 [17]: > 100 µM
- TGI [17]: > 100 µM
- GI50 [18]: > 100 µM
- TGI [18]: > 100 µM
- GI50 [19]: > 100 µM
- TGI [19]: > 100 µM
- GI50 [20]: > 100 µM
- TGI [20]: > 100 µM
- GI50 [21]: > 100 µM
- TGI [21]: > 100 µM
- GI50 [22]: > 100 µM
- TGI [22]: > 100 µM
- GI50 [23]: > 100 µM
- TGI [23]: > 100 µM
- GI50 [24]: > 100 µM
- TGI [24]: > 100 µM
- GI50 [25]: > 100 µM
- TGI [25]: > 100 µM
- GI50 [26]: > 100 µM
- TGI [26]: > 100 µM
- GI50 [27]: > 100 µM
- TGI [27]: > 100 µM
- GI50 [28]: > 100 µM
- TGI [28]: > 100 µM
- GI50 [29]: > 100 µM
- TGI [29]: > 100 µM
- GI50 [30]: > 100 µM
- TGI [30]: > 100 µM
- GI50 [31]: > 100 µM
- TGI [31]: > 100 µM
- GI50 [32]: > 100 µM
- TGI [32]: > 100 µM
- GI50 [33]: > 100 µM
- TGI [33]: > 100 µM
- GI50 [34]: > 100 µM
- TGI [34]: > 100 µM
- GI50 [35]: > 100 µM
- TGI [35]: > 100 µM
- GI50 [36]: > 100 µM
- TGI [36]: > 100 µM
- GI50 [37]: > 100 µM
- TGI [37]: > 100 µM
- GI50 [38]: > 100 µM
- TGI [38]: > 100 µM
- GI50 [39]: > 100 µM
- TGI [39]: > 100 µM
- GI50 [40]: > 100 µM
- TGI [40]: > 100 µM
- GI50 [41]: > 100 µM
- TGI [41]: > 100 µM
- GI50 [42]: > 100 µM
- TGI [42]: > 100 µM
- GI50 [43]: > 100 µM
- TGI [43]: > 100 µM
- GI50 [44]: > 100 µM
- TGI [44]: > 100 µM
- GI50 [45]: > 100 µM
- TGI [45]: > 100 µM
- GI50 [46]: > 100 µM
- TGI [46]: > 100 µM
- GI50 [47]: > 100 µM
- TGI [47]: > 100 µM
- GI50 [48]: > 100 µM
- TGI [48]: > 100 µM
- GI50 [49]: > 100 µM
- TGI [49]: > 100 µM
- GI50 [50]: > 100 µM
- TGI [50]: > 100 µM
- GI50 [51]: > 100 µM
- TGI [51]: > 100 µM
- GI50 [52]: > 100 µM
- TGI [52]: > 100 µM
- GI50 [53]: > 100 µM
- TGI [53]: > 100 µM
- GI50 [54]: > 100 µM
- TGI [54]: > 100 µM
- GI50 [55]: > 100 µM
- TGI [55]: > 100 µM
- GI50 [56]: > 100 µM
- TGI [56]: > 100 µM

SMILES: CN(N=O)C(=O)N[C@@H](C=O)[C@@H](O)[C@H](O)[C@H](O)CO
- GI50 [1]: > 100 µM
- TGI [1]: > 100 µM
- GI50 [2]: > 100 µM
- TGI [2]: > 100 µM
- GI50 [3]: > 100 µM
- TGI [3]: > 100 µM
- GI50 [4]: > 100 µM
- TGI [4]: > 100 µM
- GI50 [5]: > 100 µM
- TGI [5]: > 100 µM
- GI50 [6]: > 100 µM
- TGI [6]: > 100 µM
- GI50 [7]: > 100 µM
- TGI [7]: > 100 µM
- GI50 [57]: > 100 µM
- TGI [57]: > 100 µM
- GI50 [8]: > 100 µM
- TGI [8]: > 100 µM
- GI50 [9]: > 100 µM
- TGI [9]: > 100 µM
- GI50 [10]: > 100 µM
- TGI [10]: > 100 µM
- GI50 [11]: > 100 µM
- TGI [11]: > 100 µM
- GI50 [12]: > 100 µM
- TGI [12]: > 100 µM
- GI50 [13]: > 100 µM
- TGI [13]: > 100 µM
- GI50 [14]: > 100 µM
- TGI [14]: > 100 µM
- GI50 [15]: > 100 µM
- TGI [15]: > 100 µM
- GI50 [16]: > 100 µM
- TGI [16]: > 100 µM
- GI50 [17]: > 100 µM
- TGI [17]: > 100 µM
- GI50 [18]: > 100 µM
- TGI [18]: > 100 µM
- GI50 [19]: > 100 µM
- TGI [19]: > 100 µM
- GI50 [21]: > 100 µM
- TGI [21]: > 100 µM
- GI50 [58]: > 100 µM
- TGI [58]: > 100 µM
- GI50 [23]: > 100 µM
- TGI [23]: > 100 µM
- GI50 [59]: > 100 µM
- TGI [59]: > 100 µM
- GI50 [60]: > 100 µM
- TGI [60]: > 100 µM
- GI50 [24]: > 100 µM
- TGI [24]: > 100 µM
- GI50 [25]: > 100 µM
- TGI [25]: > 100 µM
- GI50 [26]: > 100 µM
- TGI [26]: > 100 µM
- GI50 [27]: > 100 µM
- TGI [27]: > 100 µM
- GI50 [29]: > 100 µM
- TGI [29]: > 100 µM
- GI50 [31]: > 100 µM
- TGI [31]: > 100 µM
- GI50 [32]: > 100 µM
- TGI [32]: > 100 µM
- GI50 [33]: > 100 µM
- TGI [33]: > 100 µM
- GI50 [34]: > 100 µM
- TGI [34]: > 100 µM
- GI50 [35]: > 100 µM
- TGI [35]: > 100 µM
- GI50 [36]: > 100 µM
- TGI [36]: > 100 µM
- GI50 [37]: > 100 µM
- TGI [37]: > 100 µM
- GI50 [38]: > 100 µM
- TGI [38]: > 100 µM
- GI50 [39]: > 100 µM
- TGI [39]: > 100 µM
- GI50 [41]: > 100 µM
- TGI [41]: > 100 µM
- GI50 [42]: > 100 µM
- TGI [42]: > 100 µM
- GI50 [43]: > 100 µM
- TGI [43]: > 100 µM
- GI50 [44]: > 100 µM
- TGI [44]: > 100 µM
- GI50 [45]: > 100 µM
- TGI [45]: > 100 µM
- GI50 [46]: > 100 µM
- TGI [46]: > 100 µM
- GI50 [47]: > 100 µM
- TGI [47]: > 100 µM
- GI50 [48]: > 100 µM
- TGI [48]: > 100 µM
- GI50 [49]: > 100 µM
- TGI [49]: > 100 µM
- GI50 [50]: > 100 µM
- TGI [50]: > 100 µM
- GI50 [51]: > 100 µM
- TGI [51]: > 100 µM
- GI50 [52]: > 100 µM
- TGI [52]: > 100 µM
- GI50 [53]: > 100 µM
- TGI [53]: > 100 µM
- GI50 [54]: > 100 µM
- TGI [54]: > 100 µM
- GI50 [55]: > 100 µM
- TGI [55]: > 100 µM
- GI50 [56]: > 100 µM
- TGI [56]: > 100 µM
